Experimental data taken from patent publication US10076519B2 (CYTOKINETICS, INC., priority 2010, dated 2018).

system: rabbit skeletal myofibrils (fast skeletal myofibrils); experiment: Activation of fast skeletal myofibrils (PUMA assay, PK/LDH-coupled ATPase at pCa25); format: biochemical; details: AC1.4 determined according to the procedure of Example 39; reported as class symbols
In short: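 ATPase activity of Triton-washed rabbit skeletal myofibrils, roughly 90% fast fibres, tracked by NADH loss at 340 nm through a PK/LDH-coupled ADP-regenerating system. Calcium set to 25% of maximal activity (pCa25), in PIPES 12 mM pH 6.8 with 2 mM MgCl2 and 1 mM DTT; AC1.4 reported.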

Mean AC1.4	Structure (SMILES)
B (B=1-10 uM)	CC(C)(C)OC(=O)N1CCN(C(=O)c2cccc(-c3ccc(NCC(C)(C)c4ccc(F)cc4)nn3)c2)CC1 [tert-butyl 4-{[3-(6-{[2-(4-fluorophenyl)-2-methylpropyl]amino}pyridazin-3-yl)phenyl]carbonyl}piperazine-carboxylate]

same assay, conditions: median AC1.4 class, procedure of Example 39

Mean AC1.4	Structure (SMILES)
B (B=1-10 uM)	CC(C)(C)OC(=O)N1CC(F)(F)CC1C(=O)NCc1cnc(-c2ccc(NCC3(c4ncccc4F)CCC3)nn2)s1 [tert-butyl (2S)-4,4-difluoro-2-[N-({2-[6-({[(3-fluoro(2-pyridyl))cyclobutyl]methyl}ami-no)pyridazin-3-yl](1,3-thiazol-5-yl)}methyl)carbamoyl]pyrrolidine-carboxylate]
A (A=<1 uM)	O=C(NCCO)c1cnc(-c2ccc(NCC3(c4ncccc4F)CCC3)nn2)s1 [{2-[6-({[(3-fluoro(2-pyridyl))cyclobutyl]methyl}ami-no)pyridazin-3-yl](1,3-thiazol-5-yl)}-N-(2-hydroxyethyl)carboxamide]
B (B=1-10 uM)	O=C(NC1CCNC1=O)c1cnc(-c2ccc(NCC3(c4ncccc4F)CCC3)nn2)s1 (centres unmarked) [{2-[6-({[(3-fluoro(2-pyridyl))cyclobutyl]methyl}ami-no)pyridazin-3-yl](1,3-thiazol-5-yl)}-N-(2-oxopyrrolidin-3-yl)carboxamide]
B (B=1-10 uM)	CC(C)NC(=O)c1cnc(-c2ccc(NCC3(c4ncccc4F)CCC3)nn2)s1 [{2-[6-({[(3-fluoro(2-pyridyl))cyclobutyl]methyl}ami-no)pyridazin-3-yl](1,3-thiazol-5-yl)}-N-(methylethyl)carboxamide]
B (B=1-10 uM)	O=C(NCC1CCCO1)c1cnc(-c2ccc(NCC3(c4ncccc4F)CCC3)nn2)s1 (centres unmarked) [{2-[6-({[(3-fluoro(2-pyridyl))cyclobutyl]methyl}ami-no)pyridazin-3-yl](1,3-thiazol-5-yl)}-N-(oxolan-2-ylmethyl)carboxamide]
A (A=<1 uM)	CS(=O)(=O)CCNC(=O)c1cnc(-c2ccc(NCC3(c4ncccc4F)CCC3)nn2)s1 [{2-[6-({[(3-fluoro(2-pyridyl))cyclobutyl]methyl}ami-no)pyridazin-3-yl](1,3-thiazol-5-yl)}-N-[2-(methylsulfonyl)ethyl]carboxamide]
A (A=<1 uM)	CNC(=O)c1cnc(-c2ccc(NCC3(c4ncccc4F)CCC3)nn2)s1 [{2-[6-({[(3-fluoro(2-pyridyl))cyclobutyl]methyl}ami-no)pyridazin-3-yl](1,3-thiazol-5-yl)}-N-methylcarboxamide]
A (A=<1 uM)	O=C(NC1CCNC1)c1cnc(-c2ccc(NCC3(c4ncccc4F)CCC3)nn2)s1 (centres unmarked) [{2-[6-({[(3-fluoro(2-pyridyl))cyclobutyl]methyl}ami-no)pyridazin-3-yl](1,3-thiazol-5-yl)}-N-pyrrolidin-3-ylcarboxamide]
B (B=1-10 uM)	OCc1cnc(-c2ccc(NCC3(c4ncccc4F)CCC3)nn2)s1 [{2-[6-({[(3-fluoro-2-pyridyl)cyclobutyl]methyl}ami-no)pyridazin-3-yl]-1,3-thiazol-5-yl}methan-1-ol]
A (A=<1 uM)	CC(C)(Nc1ccc(-c2cccc(NS(C)(=O)=O)c2)nn1)c1cccc(OC(F)F)n1 [{3-[6-({1-[6-(difluoromethoxy)(2-pyridyl)]-isopropyl}amino)pyridazin-3-yl]phenyl}(methylsulfonyl)amine]

same assay, conditions: median AC1.4 reported as class; procedure of Example 39

Mean AC1.4	Structure (SMILES)
B (B=1-10 uM)	Cc1cc(NCC2(c3ncccc3F)CCC2)nnc1-c1ncc(CO)s1 [{2-[6-({[(3-fluoro(2-pyridyl))cyclobutyl]methyl}amino)-4-methylpyridazin-3-yl]-1,3-thiazol-5-yl}methan-1-ol]
C (C=10-20 uM)	CNC(=O)c1cc(-c2ccc(NC[C@]3(c4ncccc4F)C[C@H](F)C3)nn2)ccc1F [{2-fluoro-5-[6-({[3-fluoro-1-(3-fluoro(2-pyridyl))cyclobutyl]methyl}ami-no)pyridazin-3-yl]phenyl}-N-methylcarboxamide]
B (B=1-10 uM)	CNC(=O)c1cc(C)cc(-c2ccc(NC[C@]3(c4ncccc4F)C[C@H](F)C3)nn2)c1O [{3-[6-({[3-fluoro-1-(3-fluoro(2-pyridyl))cyclobutyl]methyl}ami-no)pyridazin-3-yl]-2-hydroxy-5-methylphenyl}-N-methylcarboxamide]
A (A=<1 uM)	CNC(=O)c1cccc(-c2ccc(NC[C@]3(c4ncccc4F)C[C@H](F)C3)nn2)c1O [{3-[6-({[3-fluoro-1-(3-fluoro(2-pyridyl))cyclobutyl]methyl}ami-no)pyridazin-3-yl]-2-hydroxyphenyl}-N-methylcarboxamide]
B (B=1-10 uM)	CNC(=O)c1ccc(O)c(-c2ccc(NC[C@]3(c4ncccc4F)C[C@H](F)C3)nn2)c1 [{3-[6-({[3-fluoro-1-(3-fluoro(2-pyridyl))cyclobutyl]methyl}ami-no)pyridazin-3-yl]-4-hydroxyphenyl}-N-methylcarboxamide]
B (B=1-10 uM)	CNC(=O)c1cc(C)cc(-c2ccc(NC[C@]3(c4ncccc4F)C[C@H](F)C3)nn2)c1 [{3-[6-({[3-fluoro-1-(3-fluoro(2-pyridyl))cyclobutyl]methyl}ami-no)pyridazin-3-yl]-5-methylphenyl}-N-methylcarboxamide]
B (B=1-10 uM)	CN1CC(NC(=O)c2cccc(-c3ccc(NC[C@]4(c5ncccc5F)C[C@H](F)C4)nn3)c2)C1 [{3-[6-({[3-fluoro-1-(3-fluoro(2-pyridyl))cyclobutyl]methyl}ami-no)pyridazin-3-yl]phenyl}-N-(1-methylazetidin-3-yl)carboxamide]
B (B=1-10 uM)	CC(C)(O)CNC(=O)c1cccc(-c2ccc(NC[C@]3(c4ncccc4F)C[C@H](F)C3)nn2)c1 [{3-[6-({[3-fluoro-1-(3-fluoro(2-pyridyl))cyclobutyl]methyl}ami-no)pyridazin-3-yl]phenyl}-N-(2-hydroxy-2-methylpropyl)carboxamide]
B (B=1-10 uM)	CC1(O)CC(NC(=O)c2cccc(-c3ccc(NC[C@]4(c5ncccc5F)C[C@H](F)C4)nn3)c2)C1 (some centres unmarked) [{3-[6-({[3-fluoro-1-(3-fluoro(2-pyridyl))cyclobutyl]methyl}ami-no)pyridazin-3-yl]phenyl}-N-(3-hydroxy-3-methylcyclobutyl)carboxamide]
B (B=1-10 uM)	O=C(NC1CC(O)C1)c1cccc(-c2ccc(NC[C@]3(c4ncccc4F)C[C@H](F)C3)nn2)c1 (some centres unmarked) [{3-[6-({[3-fluoro-1-(3-fluoro(2-pyridyl))cyclobutyl]methyl}ami-no)pyridazin-3-yl]phenyl}-N-(3-hydroxycyclobutyl)carboxamide]
B (B=1-10 uM)	CS(=O)(=O)N1CC(NC(=O)c2cccc(-c3ccc(NC[C@]4(c5ncccc5F)C[C@H](F)C4)nn3)c2)C1 [{3-[6-({[3-fluoro-1-(3-fluoro(2-pyridyl))cyclobutyl]methyl}ami-no)pyridazin-3-yl]phenyl}-N-[1-(methylsulfonyl)azetidin-3-yl]carboxamide]
B (B=1-10 uM)	O=C(NC(CO)CO)c1cccc(-c2ccc(NC[C@]3(c4ncccc4F)C[C@H](F)C3)nn2)c1 [{3-[6-({[3-fluoro-1-(3-fluoro(2-pyridyl))cyclobutyl]methyl}ami-no)pyridazin-3-yl]phenyl}-N-[2-hydroxy-1-(hydroxymethyl)ethyl]carboxamide]
